In US8518953B2, “Aminopyrimidines useful as inhibitors of protein kinases” (Vertex Pharmaceuticals Incorporated, priority 2007, dated 2013):

Key:
CRMP2 = CRMP2 phosphorylation assay; format: cell-based, rat; details: E16 hippocampal neurons treated for 7 days
Experimental: GSK-3 phosphorylation regulates CRMP2 which is involved in the control of axon outgrowth and branching (Yoshimura et al. 2005 Cell, Kim et al. 2006 Neuron). Phosphorylation of CRMP2 by GSK-3 reduces CRMP2 binding to microtubules and thereby reduces axon elongation and branching. Conversely, inhibition of GSK-3, especially at levels that selectively affect TYR residue autophosphorylation, enhances these phenotypes. Compounds are tested in E16 rat hippocampal or cortical neurons to determine the ability to increase the level of axonal branching. 1 mg/ml stock of PDL is diluted into 100 μg/ml in DI water. The glass coverslips are coated for at least 1 hour at 37° C. prior to doing the dissection. PDL is aspirated and the plates are rinsed with PBS and air-dried in hood. Cortical or hippocampal lobes are combined with 9 mL of Base media (Neurobasal+Pen/Strep) and put on ice. 1 mL of 10× trypsin solution is added and the mixture is swirled gently. The tissue is then digested via incubation in a 37° C. waterbath for 20 minutes. After 20 minutes, 10 μl/ml DNase (100 μL DNase) is added and the mixture is incubated for another 5 minutes. The cells are spun at 1000 rpm for 1 minute. The enzyme solution is then removed without removing any of the brain fragments sitting on the bottom. […] The cells are counted in a hemacytometer and seeded at 50,000 cells/well in a 12 well plate. […]

rats subjected to MCAO = assay: Post Stroke Recovery MCAO Model: Forepaw Asymmetry (Cylinder Test); format: in vivo, rat; details: low dose, 14 days after stroke
Text: Adult male Wistar rats are pre-trained on a battery of behavioral tests including: tray reach, […], forelimb asymmetry (cylinder bracing), forelimb inhibition (swim test) (see below for detailed description of tests). Following pre-stroke behavioral assessment the rats receive surgery during which a stroke is induced. The rats are pseudo-randomly divided into 5 equal groups (n=12) ensuring an equal number of right and left strokes within each treatment group. The first group receives sham surgery with vehicle as treatment. Administration of the test compound and vehicle (dose, route, timing) is determined by the sponsor. The core body temperature is maintained at 37° C. (+/-1°). Following surgery all animals are behaviorally assessed 1, 7, and 14 d post-stroke. At the conclusion of behavioral assessment all rats undergo an MRI to determine infarct volume. […] Rectal temperature is monitored and maintained at 37 C+/-1° C. for the duration of the surgery and until the rat is awake and mobile (approximately 3 hr). […] Forepaw asymmetry of the animals is measured by placing a rat into a clear acrylic cylinder 25 cm in diameter. […] The first paw that touches the cylinder wall during the rear is counted. […]

For `Cc1nc(-c2ccccc2Cl)nc(Nc2n[nH]c3ncc(F)cc23)c1C` [Compound I-1, N-(2-(2-chlorophenyl)-5,6-dimethylpyrimidin-4-yl)-5-fluoro-1H-pyrazolo[3,4-b]pyridin-3-amine], the “Inhibition of GSK-3 phosphorylation of substrate CRMP-2” value (CRMP2) was “correlated with inhibition of GSK-3 pTYR” and the “deficit in forepaw asymmetry (cylinder test)” value (rats subjected to MCAO) was “significantly ameliorated this deficit”.
